{
  "source": "patent US20060217445A1",
  "about": "“Natural astaxanthin extract reduces dna oxidation” (priority 2003, published 2006)",
  "key": {"[1]": {"experiment": "Plasma astaxanthin by reverse phase HPLC in supplemented human subjects", "assay_type": "in vivo", "design": "Astaxanthin Levels (plasma): unit not given here", "details": "for Astaxanthin Levels (plasma): oral", "experimental": "(§1) Free-living healthy female Korean subjects (average age 21.5 years) were recruited at Inha University, Korea. A three-day dietary record was obtained prior to the study to provide background dietary information. Subjects had no history of diabetes, cancer or alcohol abuse, and were non-smokers. They were allowed to consume their normal diets but advised to restrain from eating astaxanthin-rich foods. Subjects were assigned to receive 0 (control), 2, or 8 mg astaxanthin (109 g astaxanthin/kg oleoresin concentrate from Haematococcus pluvialis, astaZanthin™, La Haye Laboratories Inc., Redmond, Wash.) (n=14 subjects/diet) for eight weeks in a double-blind placebo control study. The astaxanthin was administered in the form of one soft gel capsule taken every morning. Blood was again drawn on week 0, 4 and 8 to assess immune function and oxidative status.\nHPLC. Astaxanthin content in plasma was analyzed by reverse phase HPLC (Alliance 2690 Waters HPLC system fitted with a photodiode array detector, Waters, Milford, Mass.) as previously described (Park et al., J Nutr. 128(10):1650-1656, 1998). Trans-β-apo-8′carotenal (Sigma Chem. Co., St. Louis, Mo.) was used as the internal standard."}, "human subjects": {"test_system": "human subjects", "experiment": "Delayed-type hypersensitivity (DTH) response to intracutaneous tuberculin", "assay_type": "in vivo", "experimental": "as §1\nDelayed-type hypersensitivity. Delayed-type hypersensitivity (DTH) response to an intracutaneous injection of tuberculin (Mono-Vacc Test (O.T.), Pasteur Merieux Connaught, France) was assessed on week 8. The injection was administered by a physician and skin thickness and induration were measured at 0, 24, 48 and 72 hours after challenge. In general, DTH response was maximal at 48 to 72 h post-injection (FIG. 9). Subjects fed 2 mg astaxanthin had higher (P<0.08) DTH response than unsupplemented controls."}, "[2]": {"test_system": "peripheral blood mononuclear cell (PBMC)", "experiment": "Mitogen-induced lymphoproliferation, whole blood cultures", "assay_type": "in vivo, human", "details": "especially 8 mg; significant (P<0.05) on wk 8", "experimental": "as §1\nLymphoproliferation. The proliferation response of peripheral blood mononuclear cell (PBMC) to PHA (2 and 10 mg/L final concentration), concanavalin A (Con A; 2 and 10 mg/L), and pokeweed mitogen (PWM; 1 and 5 mg/L) was assessed using whole blood cultures as described (Chew et al., J Nutr. 130(8):1910-1913, 2000). Whole blood was cultured in order to mimic in vivo conditions. Results were calculated as stimulation index (cpm of mitogen-stimulated culture/cpm of unstimulated cultures). Astaxanthin supplementation, especially those given 8 mg astaxanthin, increased lymphocyte proliferation when stimulated by the T cell-dependent mitogens PHA (FIG. 2) and Con A (FIG. 3), and also B cell mitogen (PWM, FIG. 4). The increases were significant (P<0.05) on wk 8 for all mitogens."}, "[3]": {"test_system": "CD3 (total T), CD4 (Th), CD8 (Tc), NK, CD21 (B cells)", "experiment": "Leukocyte subsets by flow cytometry", "assay_type": "in vivo, human", "experimental": "as §1\n(§2) Leukocyte subset. Subpopulations of CD3 (total T), CD4 (Th), CD8 (Tc), NK (natural killer), and CD21 (B cells) were quantitated by flow cytometry as previously described (Chew et al. 2000). In addition, the distribution of the cell surface adhesion molecules ICAM-1 (CD54), LFA-1 (CD11a) and LFA-3 (CD58), also was measured by flow cytometry. The population of total T cells was higher (P<0.05) in astaxanthin-fed (both levels) subjects than unsupplemented controls on wk 4 and 8 (FIG. 6). The population of B cells also was higher (P<0.05) in subjects given 2 mg astaxanthin after 8 weeks (FIG. 7)."}, "[4]": {"test_system": "ICAM-1 (CD54), LFA-1 (CD11a) and LFA-3 (CD58)", "experiment": "Cell surface adhesion molecules by flow cytometry", "assay_type": "in vivo, human", "details": "for frequency of cells expressing LFA-1 marker: week 8 (control 31.8%)", "experimental": "as §1, §2"}, "K562 target cells": {"test_system": "K562 target cells", "experiment": "Natural killer cell cytotoxic activity (PBMC effector, MTT)", "assay_type": "in vivo, human", "details": "8 mg daily, wk 8, effector:target ratio 10:1, P<0.05", "experimental": "as §1\nNatural killer cell cytotoxic activity. Effector (PBMC) and target (K562) cells were cultured at effector:target ratios of 5:1 and 10:1 in Dulbecco's Modified Eagles Medium (Sigma, St. Louis, Mo.) containing 100 mL/L fetal bovine serum, 100 U/mL penicillin, and […] streptomycin sulfate. Killing was assessed using MTT. Percent of specific cytotoxicity calculated as follows: % Specific cytotoxicity=1−(ODeffector+target−ODeffector)/ODtarget×100. […]"}, "[5]": {"test_system": "8-Hydroxy-2′-deoxyguanosine (8-OHdG)", "experiment": "Oxidative damage to DNA: plasma 8-OHdG by ELISA", "assay_type": "in vivo, human", "design": "Average Levels of 8-OHdG (plasma): unit not given here", "details": "for Average Levels of 8-OHdG (plasma): oral", "experimental": "as §1\nOxidative damage to DNA. 8-Hydroxy-2′-deoxyguanosine (8-OHdG) was measured in plasma by ELISA (BIOXYTECH™ 8-OHhdG-EIA Kit, OxisResearch, Portland, Oreg.; sensitivity=0.5 μg/L)."}, "[6]": {"test_system": "8-epi-prostaglandin F2α (8-isoprostane)", "experiment": "Lipid peroxidation: plasma 8-isoprostane by ELISA", "assay_type": "in vivo, human", "details": "2 or 8 mg daily, 8 weeks", "experimental": "as §1\nLipid-peroxidation. Plasma concentrations of 8-epi-prostaglandin F2α (8-isoprostane) was measured by ELISA."}, "rats": {"test_system": "rats", "details": "rats fed 400 ppm for 41 days; cited from earlier work"}, "[7]": {"test_system": "UVA-induced oxidative stress", "details": "in vitro; cited from earlier work"}, "[8]": {"details": "cited from earlier work"}, "[9]": {"details": "mice fed the same amount of these carotenoids; cited from earlier work"}, "lipid peroxidation": {"test_system": "lipid peroxidation", "details": "cited from earlier work"}, "[10]": {"test_system": "cytotoxic T lymphocyte activity and IFN-γ production", "details": "astaxanthin-fed mice; cited from earlier work"}, "splenocytes": {"test_system": "splenocytes", "details": "mice; cited from earlier work"}, "[11]": {"test_system": "splenocytes of tumor-bearing mice", "details": "dietary; cited from earlier work"}},
  "note": "“Also recorded” adds a separate entry of the source.",
  "data": [
    {"smiles": "CC1=C(/C=C/C(C)=C/C=C/C(C)=C/C=C/C=C(C)/C=C/C=C(C)/C=C/C2=C(C)C(=O)C(O)CC2(C)C)C(C)(C)CC(O)C1=O", "note": "(stereo not drawn) [astaxanthin, 3,3′-dihydroxy-beta,beta-carotene-4,4′-dione]", "values": [
      {"measurement": "Astaxanthin Levels (plasma)", "setting": "[1]; 2 mg astaxanthin daily, 4 week", "value": 0.0960},
      {"measurement": "Astaxanthin Levels (plasma)", "setting": "[1]; 2 mg astaxanthin daily, 8 week", "value": 0.0921},
      {"measurement": "Astaxanthin Levels (plasma)", "setting": "[1]; 8 mg astaxanthin daily, 4 week", "value": 0.1309},
      {"measurement": "Astaxanthin Levels (plasma)", "setting": "[1]; 8 mg astaxanthin daily, 8 week", "value": 0.1162},
      {"measurement": "plasma astaxanthin prior to feeding", "setting": "[1]; week 0", "value": "undetectable"},
      {"measurement": "plasma astaxanthin, change on feeding", "setting": "[1]; weeks 4 and 8, dose-dependently, P<0.01", "value": "increased"},
      {"measurement": "DTH response vs unsupplemented controls", "setting": "human subjects; 2 mg daily, week 8, P<0.08", "value": "higher"},
      {"measurement": "DTH response vs unsupplemented controls", "setting": "human subjects; 8 mg daily, week 8", "value": "did not show a similar heightened DTH response"},
      {"measurement": "Con A-induced lymphocyte proliferation (stimulation index)", "setting": "[2]", "value": "increased; also recorded: stimulated"},
      {"measurement": "PHA-induced lymphocyte proliferation (stimulation index)", "setting": "[2]", "value": "increased; also recorded: stimulated"},
      {"measurement": "PWM-induced lymphocyte proliferation (stimulation index)", "setting": "[2]", "value": "increased; also recorded: stimulated"},
      {"measurement": "population of B cells", "setting": "[3]; 2 mg daily, after 8 weeks, P<0.05", "value": "higher"},
      {"measurement": "population of B cells", "setting": "[3]; 8 mg daily", "value": "did not elevate"},
      {"measurement": "population of Th, Tc or NK cells or ratio of Th:Tc cells", "setting": "[3]; 2 or 8 mg daily", "value": "did not significantly influence"},
      {"measurement": "population of total T cells vs unsupplemented controls", "setting": "[3]; both levels (2 and 8 mg), wk 4 and 8, P<0.05", "value": "higher; also recorded: increased"},
      {"measurement": "expression of LFA-1 adhesion molecules", "setting": "[4]; 2 mg daily, P<0.05", "value": "increased"},
      {"measurement": "frequency of cells expressing LFA-1 marker", "setting": "[4]; 2 mg daily", "value": 42.1, "unit": "%"},
      {"measurement": "frequency of cells expressing LFA-1 marker", "setting": "[4]; 8 mg daily", "value": 30.6, "unit": "%"},
      {"measurement": "ICAM-1 or LFA-3 expression", "setting": "[4]; 2 or 8 mg daily", "value": "No similar dietary effect"},
      {"measurement": "NK cell cytotoxic activity", "setting": "K562 target cells", "value": "higher; also recorded: increased"},
      {"measurement": "Average Levels of 8-OHdG (plasma)", "setting": "[5]; 2 mg astaxanthin daily, 0 week (baseline)", "value": 23.4},
      {"measurement": "Average Levels of 8-OHdG (plasma)", "setting": "[5]; 2 mg astaxanthin daily, 4 week", "value": 13.8},
      {"measurement": "Average Levels of 8-OHdG (plasma)", "setting": "[5]; 2 mg astaxanthin daily, 8 week", "value": 14.4},
      {"measurement": "Average Levels of 8-OHdG (plasma)", "setting": "[5]; 8 mg astaxanthin daily, 0 week (baseline)", "value": 23.5},
      {"measurement": "Average Levels of 8-OHdG (plasma)", "setting": "[5]; 8 mg astaxanthin daily, 4 week", "value": 15.3},
      {"measurement": "Average Levels of 8-OHdG (plasma)", "setting": "[5]; 8 mg astaxanthin daily, 8 week", "value": 13.2},
      {"measurement": "further decrease of DNA damage with higher dose", "setting": "[5]; 8 mg vs 2 mg daily", "value": "did not decrease further"},
      {"measurement": "plasma 8-oxodG concentration vs unsupplemented subjects", "setting": "[5]; 2 or 8 mg daily, as early as wk 4, P<0.01", "value": "dramatically lower"},
      {"measurement": "reduction in 8-OHdG (blood DNA damage)", "setting": "[5]; after 4 weeks of feeding", "value": "> 35", "unit": "%"},
      {"measurement": "lipid peroxidation measured in the plasma (8-isoprostane)", "setting": "[6]", "value": "did not significantly influence"},
      {"measurement": "effects on body/organ weight, enzyme activities, pregnancy, or litter size", "setting": "rats", "value": "no harmful effects"},
      {"measurement": "protection against UVA-induced oxidative stress relative to lutein and β-carotene", "setting": "[7]", "value": "approximately 100 fold"},
      {"measurement": "solubility in oil", "setting": "[8]; oil", "value": "extremely low"},
      {"measurement": "solubility in water", "setting": "[8]; water", "value": "substantially insoluble"},
      {"measurement": "concentration in plasma vs β-carotene, lutein", "setting": "[9]", "value": "much higher"},
      {"measurement": "inhibiting lipid peroxidation vs β-carotene and vitamin E", "setting": "lipid peroxidation", "value": "more effective"},
      {"measurement": "cytotoxic T lymphocyte activity and IFN-γ production", "setting": "[10]", "value": "increased"},
      {"measurement": "ex vivo antibody response of splenocytes to T-cell antigens", "setting": "splenocytes", "value": "increased"}
    ]},
    {"smiles": "CC1=C[C@H](O)CC(C)(C)[C@H]1/C=C/C(C)=C/C=C/C(C)=C/C=C/C=C(C)/C=C/C=C(C)/C=C/C1=C(C)C[C@@H](O)CC1(C)C", "note": "[lutein]", "values": [
      {"measurement": "IFN-γ mRNA expression", "setting": "[11]", "value": "increased"},
      {"measurement": "expression of IL-10", "setting": "[11]", "value": "decreased"}
    ]}
  ]
}
